Results: US7012093B2, “Multiple fluorescent natural dye compound from a marine organism and method of use thereof” (Council of Scientific & Industrial Research, priority 2001, dated 2006)
“Also recorded” adds a separate entry of the source.

What was measured:
E. coli (wild type) = assay: Anti-microbial test (zone of inhibition, filter paper disk on seeded agar); type: cell-based; settings: 10 mg/ml of the sample soaked in filter paper disks, 37° C., 24 hours
Description: In yet another embodiment, anti-microbial test of the compound cum dye is done. […] As the marine dye is, a phenolic compound and phenolic compounds are generally having Anti-microbial activity, the anti-microbial assay was performed with this compound and the zone of inhibition was observed. E. coli (wild type) culture was grown overnight in MacConkey's broth 50 ml in a conical flask (100 ml). Antibiotic assay agar medium was prepared and sterilized. It was then brought to a temperature of 50 degree centigrade and 1 ml of E. coli (wild type) culture was added to it. The culture was mixed with antibiotic assay agar medium and was allowed to solidify. 10 mg/ml of the sample was prepared and soaked in filter paper disks. It was then placed upon the said antibiotic assay agar medium seeded with E. coli. It was then incubated at 37° C. in an incubator for 24 hours.

ticks/fleas of dogs = assay: Veterinary remedy: killing ticks/fleas of dogs; type: in vivo, ticks and fleas
Source text: In yet another embodiment, the utility of the dye as a Veterinary remedy for ticks and fleas of pets is seen. The extract is used as veterinary remedy for killing ticks/fleas of dogs. 5×10^−6 concentration of dye in 1:200 dilutions killed ticks and fleas in less than 20 seconds. The extract was used as veterinary remedy for killing ticks/fleas of dogs. 5×10^−8 concentration of the purified compound cum dye killed ticks and fleas in less than 20 seconds.

ants = assay: Pesticidal effect (filter paper soaked in the dye); type: in vivo; settings: filter paper soaked in the dye left on the workbench; next day full of dead ants
Source text: In yet another embodiment, the pesticidal effect of the compound cum dye is noticed. […] The filter paper soaked in the dye was left unattended on the workbench. Next day it was noticed full of dead ants. […] The filter paper soaked in the dye was left unattended on the workbench. Next day it was noticed full of dead ants.

[1] = Solubility of the compound; type: physicochemical; settings: for solubility in organic solvents: ethanol, methanol, acetone
[2] = Stability check of the dye (temperature, shelf life, light); type: physicochemical
Description: (§1) The pure hydrogen form of the compound is having the pH of 2.8. The salt form of the compound is stable up to 300° C. without the change of physical and chemical characters. The compound in aqueous solution in a very diluted form (5×10^−6 concentration) is pale yellow in color with the naked eye and the concentrated solution is reddish brown in color.
The compound retained its stability for about a year without any contamination or chemical decay.

[3] = Stability of the compound cum dye at the sub zero temperatures; type: physicochemical
Source text: In yet another embodiment stability of the compound cum Dye at the sub Zero temperatures is seen. The compound in its diluted form 5×10^−6 was taken in a microfuge tube and kept at −20 degree centigrade and seen in the frozen state under UV light.
The compound in its diluted form 5×10^−6 was taken in a microfuge tube and kept at −20 degree centigrade and seen in the frozen state under UV light.

[4] = pH of the compound and pH sensitivity of emissions; type: physicochemical
Description: as §1
The dye has a pH of 2.8 and their spectral emissions are not affected at different pH range i.e. from pH 2.8–8.0.

[5] = Biosurfactant nature (shaking of solutions); type: physicochemical; settings: 0.001 mg–0.01 mg per ml solutions

Phenolic sulphated silicated polysaccharide [PSSP-1]
zone of inhibition (E. coli (wild type); listed as compound cum dye): zone of inhibition is observed
zone of inhibition (E. coli (wild type); listed as dye): Zone of inhibition surrounding the filter disk was observed
time to kill ticks and fleas (ticks/fleas of dogs; 5×10^−6 concentration of dye in 1:200 dilutions): less than 20 seconds
time to kill ticks and fleas (ticks/fleas of dogs; 5×10^−8 concentration of the purified compound cum dye): less than 20 seconds
toxicity to insects (ants): toxic to insects
solubility in organic solvents [1]: insoluble in the organic solvents including ethanol, methanol and acetone
solubility in organic solvents ([1]; listed as dye): insoluble in the organic solvents like ethanol, methanol and acetone
solubility in water [1]: soluble in water
solubility in water ([1]; listed as dye): more than the solubility characters of Fluorescein; also recorded: highly water-soluble
photolysis after light treatment ([2]; exposure to light, listed as dye): does not undergo photolysis after exposure to light; also recorded: did not undergo photolysis after light treatment
temperature up to which the dye is stable (no alteration of the spectral property) ([2]; heating, fluorescent spectral properties unchanged): up to 300 degree Centigrade
duration of retained stability without contamination or chemical decay ([2]; room temperature): about a year
persistence of fluorescence at the room temperature ([2]; room temperature): at least 1 year
duration of retained stability without contamination or chemical decay ([2]; room temperature, listed as dye): above a year
fluorescence in the frozen state ([3]; diluted form 5×10^−6, −20 degree centigrade, under UV light): persisted without any deterioration
fluorescence after freezing in liquid nitrogen ([3]; frozen in the liquid nitrogen): remained unaffected
pH [4]: 2.8
effect of pH on spectral emissions ([4]; pH 2.8–8.0): not affected
frothing on shaking [5]: frothing was seen
frothing on shaking ([5]; listed as dye): frothing is seen
